Source: PMC11595589, “A Pharmacokinetic and Bioavailability Study of Ecklonia cava Phlorotannins Following Intravenous and Oral Administration in Sprague–Dawley Rats” (Marine Drugs, 2024)
“Also recorded” adds a separate entry of the source. Like-named read-outs stand apart in the source and are kept apart here.

How the values were obtained:
[1] = Single-dose pharmacokinetics and bioavailability after oral gavage administration of EK-ECP; assay type: in vivo, male Sprague–Dawley rats; conditions: for Tlast / Tmax: median (minimum-maximum); for fold increase in AUCTlast for a 1:10-fold increase in dose / fold increase in Cmax for a 1:10-fold increase in dose: PO 100 to 1000 mg/kg EK-ECP; for half-life / AUC(0-t) / bioavailability / Cmax / AUC(0-inf) / MRT last / Vd/F / Tmax: male, Sprague-Dawley, rat; for half-life / AUC(0-t): po; for bioavailability: 100 and 1000 mg/kg oral dose of EK-ECP versus IV 10 mg/kg, dose-corrected, read-out: Bioavailability following oral gavage administration; for Vd/F: read-out: Vz/F
Experimental: EK-ECP was administered to male Sprague–Dawley rats by either IV bolus (Group 1, 10 mg/kg) or oral gavage (Groups 2, 3 or 4, at 10, 100 or 1000 mg/kg, respectively) administration. Blood collection intervals were pre dose (0), and 0.25, 0.5, 1, 2, 4, 6, 8, 12, 24 and 36 h post dose. Plasma samples were analyzed for concentrations of 8,8′-bieckol, dieckol, and PFF-A; all pre-dose sample results were less than the lower limit of quantitation (LLOQ < 1 ng/mL). The time profiles of the plasma concentrations of 8,8′-bieckol, dieckol, and PFF-A in individual animals are illustrated in Figure 4. The mean pharmacokinetic parameters and corresponding coefficient of variation (CV) following IV administration of 10 mg/kg EK-ECP to male rats are illustrated in Table 1. Those following oral administrations of 10, 100 and 1000 mg/kg EK-ECP to male rats are illustrated in Table 2.
Total of 20 male CD® [Crl:CD®(SD)] rats (approximately 11.5 weeks of age) obtained from Charles River Laboratories (Portage, MI, USA) were used in our study. These included five rats with both jugular and femoral vein cannulations, and 15 rats with jugular vein cannulations. Of the 20 animals received, 16 male rats were placed in the study, comprising four rats with both jugular and femoral vein cannulations, and 12 rats with jugular vein cannulations. The rats were housed in the Mattawan facility of MPI Research Inc (currently Charles River Laboratories, Mattawan, MI, USA). Animal welfare for this study was in compliance with the U.S. Department of Agriculture’s (USDA) Animal Welfare Act (9 CFR Parts 1, 2 and 3). This facility maintained an animal welfare assurance statement with the National Institutes of Health Office of Laboratory Animal Welfare. All procedures were approved before the study by the institutional animal care utilization committee. Animals were individually housed and fed a basal diet of Lab Diet Certified Rodent Diet #5002, PMI Nutrition International, Inc. Food and water was available ad libitum except during fasting periods, when food was withheld, and during any required restraint periods, when both food and water were withheld. Animal rooms were maintained at (20 ± 2) °C and (50 ± 20)% relative humidity with a 12 h light/dark cycle throughout the study.
For intravenous administration, EK-ECP was dissolved in 70/25/5 (v/v) phosphate-buffered saline (PBS)/propylene glycol/ethanol (pH 5.1 final concentration of 2 mg/mL) and stabilized at room temperature for 24 h. For oral administration, after an amount of EK-ECP appropriate to the final targeted formulation concentrations was weighed and placed in a bottle, a small amount of the vehicle (water for injection) was added and mixed using a vortex mixer and heated to between 60 to 70 °C until homogeneously suspended. Additional amounts of the vehicle were gradually added to yield the targeted EK-ECP concentrations (1, 10, and 100 mg/mL). Dosing occurred within 4 h after preparation completion. The individual constituent doses of dieckol, 8,8′-bieckol, and PFF-A in each dosing formulation were analyzed by RP-HPLC followed by interpolation of the corresponding area% to the calibration curve prepared with known concentrations of isolated standards. The animals were fasted for a minimum of 4 h prior to dosing and through the first 4 h of blood sample collection. Each animal in Group 1 received a single intravenous (IV) dose of the 10 mg/kg EK-ECP. The intravenous doses were administered as a slow bolus injection over 5 min through the femoral vein cannula. The cannula was flushed with approximately 0.3 mL of sterile 0.9% sodium chloride for injection, USP, immediately following dosing. Each animal in Groups 2, 3 and 4 received a single oral (PO) gavage dose of the appropriate test article formulation, as outlined Table 3. Oral gavage dosing formulations were continuously stirred throughout dosing. […]

mouse-model = tested on: mouse-model; design: method as in PMID 16042079; conditions: oral administration, mouse model ref 64; cited from earlier work
[2] = stated in the discussion without data or reference; cited from earlier work
[3] = Stability at pH 2 by UV–Vis spectroscopy (gastric juice degradation); assay type: physicochemical; conditions: period of at least 5 h, unpublished data
Description: To address the potential reduction in bioavailability due to degradation by gastric juice, we evaluated the stability of dieckol as a representative compound of phlorotannins at a pH of 2 using UV–Vis spectroscopy.

gut microbial ecosystem = conditions: hydroethanolic extract of Silvetia compressa ref 73; cited from earlier work
[4] = PO 1000 mg/kg EK-ECP (Group 4), PFF-A in a single rat
[5] = in vivo, PO 100 mg/kg EK-ECP, mean (CV)
[6] = in vivo, PO 1000 mg/kg EK-ECP, mean (CV)
[7] = plasma, PO 1000 mg/kg EK-ECP (Group 4), mean (CV), PFF-A N = 1
[8] = plasma, PO 100 mg/kg EK-ECP, mean (CV)
[9] = plasma, PO 1000 mg/kg EK-ECP, mean (CV)

## Oc1cc(O)cc(Oc2c(O)cc(O)c3c2Oc2c(cc(O)c(-c4c(O)cc5c(c4O)Oc4c(Oc6cc(O)cc(O)c6)c(O)cc(O)c4O5)c2O)O3)c1 [8,8′-bieckol]
[1]; PO 100 mg/kg EK-ECP (Group 3)
  plasma concentrations quantifiable up to: 12 h
[1]; PO 100 mg/kg EK-ECP
  Tlast: 8 (8–12) h
[1]; [4]
  plasma concentrations quantifiable up to: 36 h
[1]; PO 1000 mg/kg EK-ECP, mean (CV), ln(2)·MRTlast, 1000 mg/kg
  Effective T1/2: 4.11 (16) h
[1]; PO 1000 mg/kg EK-ECP
  Tlast: 36 (36–36) h
[1]
  fold increase in AUCTlast for a 1:10-fold increase in dose: ~84 fold
  fold increase in Cmax for a 1:10-fold increase in dose: ~71 fold
[1]; in vivo, 100 mg/kg, PO 100 mg/kg EK-ECP, mean (CV), ln(2)·MRTlast, read-out: Effective T1/2 (converted)
  half-life: 2.24 h
[1]; in vivo, 100 mg/kg, PO 100 mg/kg EK-ECP, mean (CV), read-out: AUC(0–24h)
  AUC(0-t): 41.5 ng·h/mL
[1]; in vivo, 100 mg/kg, PO 100 mg/kg EK-ECP, mean (CV), read-out: AUCTlast
  AUC(0-t): 37.7 ng·h/mL
[1]; in vivo, 100 mg/kg, PO 100 mg/kg EK-ECP, mean (CV), read-out: T1/2 (terminal half-life) (converted)
  half-life: 2.95 h
[1]; in vivo, 1000 mg/kg, PO 1000 mg/kg EK-ECP, mean (CV), ln(2)·MRTlast, read-out: Effective T1/2 (converted)
  half-life: 4.41 h
[1]; in vivo, 1000 mg/kg, PO 1000 mg/kg EK-ECP, mean (CV), read-out: AUC(0–24h)
  AUC(0-t): 3050 ng·h/mL
[1]; in vivo, 1000 mg/kg, PO 1000 mg/kg EK-ECP, mean (CV), read-out: AUCTlast
  AUC(0-t): 3170 ng·h/mL
[1]; in vivo, 1000 mg/kg, PO 1000 mg/kg EK-ECP, mean (CV), read-out: T1/2 (terminal half-life) (converted)
  half-life: 6.63 h
[1]; in vivo
  bioavailability: 0.069 to 0.5%
[1]; in vivo, PO 100 mg/kg EK-ECP (Group 3), mean (CV)
  Cmax: 11.2 ng/mL
[1]; [5]
  AUC(0-inf): 44 ng·h/mL
  MRT last: 3.23 h
  Vd/F: 1060 L/kg
[1]; in vivo, PO 100 mg/kg EK-ECP
  Tmax: 0.25 to 4 h
[1]; in vivo, PO 1000 mg/kg EK-ECP (Group 4), mean (CV), PFF-A N = 1
  Cmax: 795 ng/mL
[1]; [6]
  AUC(0-inf): 3210 ng·h/mL
  MRT last: 5.93 h
  Vd/F: 342 L/kg
[1]; in vivo, PO 1000 mg/kg EK-ECP
  Tmax: 0.5 h

## Oc1cc(O)cc(Oc2c(O)cc(O)c3c2Oc2c(O)cc4oc5c(Oc6cc(O)cc(O)c6)c(O)cc(O)c5c4c2O3)c1 [PFF-A, phlorofucofuroeckol-A]
[1]; PO 100 mg/kg EK-ECP (Group 3), LLOQ 1 ng/mL, 100 mg/kg
  plasma concentrations: below the lower limit of quantitation; also recorded: below the quantifiable limit
[1]; [4]
  plasma concentrations quantifiable up to: 1 h
[1]; [7]
  Cmax: 1.58 ng/mL
[1]; plasma, PO 1000 mg/kg EK-ECP
  Tmax: 0.5 h
mouse-model
  oral dose with CNS-directed effect (as low as): 0.2 mg/kg/bw
[2]
  solubility in water: virtually insoluble in water

## Oc1cc(O)cc(Oc2c(O)cc(O)c3c2Oc2c(O)cc(Oc4c(O)cc(Oc5c(O)cc(O)c6c5Oc5c(O)cc(O)cc5O6)cc4O)cc2O3)c1 [dieckol]
[1]; PO 100 mg/kg EK-ECP (Group 3)
  plasma concentrations quantifiable up to: 8 h
[1]; PO 100 mg/kg EK-ECP
  Tlast: 8 (6–8) h
[1]; [4]
  plasma concentrations quantifiable up to: 36 h
[1]; PO 1000 mg/kg EK-ECP
  Tlast: 36 (36–36) h
[1]
  fold increase in AUCTlast for a 1:10-fold increase in dose: ~49 fold
  fold increase in Cmax for a 1:10-fold increase in dose: ~41 fold
[1]; plasma, 100 mg/kg, PO 100 mg/kg EK-ECP, mean (CV), ln(2)·MRTlast, read-out: Effective T1/2 (converted)
  half-life: 2.36 h
[1]; plasma, 100 mg/kg, PO 100 mg/kg EK-ECP, mean (CV), read-out: AUC(0–24h)
  AUC(0-t): 27.2 ng·h/mL
[1]; plasma, 100 mg/kg, PO 100 mg/kg EK-ECP, mean (CV), read-out: AUCTlast
  AUC(0-t): 24.3 ng·h/mL
[1]; plasma, 100 mg/kg, PO 100 mg/kg EK-ECP, mean (CV), read-out: T1/2 (terminal half-life) (converted)
  half-life: 2.76 h
[1]; plasma, 1000 mg/kg, PO 1000 mg/kg EK-ECP, mean (CV), ln(2)·MRTlast, read-out: Effective T1/2 (converted)
  half-life: 5.31 h
[1]; plasma, 1000 mg/kg, PO 1000 mg/kg EK-ECP, mean (CV), read-out: AUC(0–24h)
  AUC(0-t): 1130 ng·h/mL
[1]; plasma, 1000 mg/kg, PO 1000 mg/kg EK-ECP, mean (CV), read-out: AUCTlast
  AUC(0-t): 1200 ng·h/mL
[1]; plasma, 1000 mg/kg, PO 1000 mg/kg EK-ECP, mean (CV), read-out: T1/2 (terminal half-life) (converted)
  half-life: 6.61 h
[1]; plasma
  bioavailability: 0.06 to 0.23%
[1]; plasma, PO 100 mg/kg EK-ECP (Group 3), mean (CV)
  Cmax: 6.67 ng/mL
[1]; [8]
  AUC(0-inf): 31.4 ng·h/mL
  MRT last: 3.4 h
  Vd/F: 1160 L/kg
[1]; plasma, PO 100 mg/kg EK-ECP
  Tmax: 0.5 to 4 h
[1]; [7]
  Cmax: 274 ng/mL
[1]; [9]
  AUC(0-inf): 1230 ng·h/mL
  MRT last: 7.67 h
  Vd/F: 768 L/kg
[1]; plasma, PO 1000 mg/kg EK-ECP
  Tmax: 0.5 h
mouse-model
  oral dose with CNS-directed effect (as low as): 1.0 mg/kg/bw
[3]
  stability at pH 2: no significant changes
Gut microbial ecosystem
  metabolism during fermentation: metabolized within eight hours of fermentation
